Measured values taken from patent US7067251B2 (priority 2000, dated 2006).

How the values were obtained:
[1] = tested on: Mouse splenic T cells activated by plate bound anti-CD3 antibody; conditions: cited from earlier work
naïve T cells = assay type: cell-based, Human
vEL/tk = assay type: cell-based, vaccinia virus
vaccinia WR = assay type: cell-based, vaccinia virus
v7.5/tk = assay type: cell-based, vaccinia virus

Cn1cc(C2=C(c3cn(CCCN)c4ccccc34)C(=O)NC2=O)c2ccccc21 [Bis VIII, Bisindolylmaleimide VIII]
T cell death [1]: ~100% | Killing of the total number of T cells (naïve T cells): 95%

O=c1[nH]c(=O)n([C@H]2C[C@H](O)[C@@H](CO)O2)cc1Br [bromodeoxyuridine]
Viability of the cells (Hutk^− cell line): does not interfere with the viability of the cells | Concentration sufficient to inhibit plaque formation (vEL/tk): 125 mM | Plaque formation (vEL/tk): an equal number of plaques, albeit much smaller in size | Concentration sufficient to interfere with the ability to plaque (vaccinia WR): 25 mM | Concentration sufficient to inhibit plaque formation (v7.5/tk): 125 mM
